Structures can show the parent of a compound that is named as a salt.
What was measured:
FAAH [1] = molecular target: T1, FAAH (Mus musculus, UniProt O08914); assay: In vitro/ex vivo FAAH activity determination in brain after intra-tracheal instillation; parameters: Liver and brain fragments were removed and processed for enzymatic activity determination; from tissue; species or system male NMRI mice; settings: remaining enzymatic activity vs controls, 1 mg/kg intra-tracheal instillation, sacrificed after 8 h
T1 sequence (O08914 1-579): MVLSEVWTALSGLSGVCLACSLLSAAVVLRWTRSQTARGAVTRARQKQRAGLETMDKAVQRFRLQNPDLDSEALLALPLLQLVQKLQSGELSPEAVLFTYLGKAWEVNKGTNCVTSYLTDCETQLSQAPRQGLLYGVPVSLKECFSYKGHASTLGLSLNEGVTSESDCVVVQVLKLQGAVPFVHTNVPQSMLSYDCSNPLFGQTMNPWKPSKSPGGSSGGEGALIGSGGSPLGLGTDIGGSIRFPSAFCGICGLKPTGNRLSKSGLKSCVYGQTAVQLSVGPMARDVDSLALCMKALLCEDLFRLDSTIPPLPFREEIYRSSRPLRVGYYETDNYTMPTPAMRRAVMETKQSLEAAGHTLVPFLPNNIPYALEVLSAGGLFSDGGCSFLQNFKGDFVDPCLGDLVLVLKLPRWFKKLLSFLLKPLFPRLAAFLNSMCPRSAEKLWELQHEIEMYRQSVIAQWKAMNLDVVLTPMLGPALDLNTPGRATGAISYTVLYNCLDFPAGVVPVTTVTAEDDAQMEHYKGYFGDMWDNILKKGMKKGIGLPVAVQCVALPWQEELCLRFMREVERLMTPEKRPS
Protocol: (§1) To evaluate the selectivity of test compounds in inhibiting FAAH activity, male NMRI mice were administrated following instillation with 1 mg/kg compound and were sacrificed after 8 h treatment. Liver and brain fragments were removed and processed for enzymatic activity determination.
(§2) FAAH activity was measured as the amount of ^3H-ethanolamine formed, by liquid scintillation counting, from the hydrolysis of the substrate anandamide (AEA, labeled with ^3H on the ethanolamine part of the molecule). The percentage of remaining enzymatic activity was calculated in respect to controls and after blank subtraction. Therefore, a low value for the test compounds indicates a strong inhibitor.
(§3) Male NMRI mice (body weight range: 25-35 g) were obtained from Harlan Laboratories (Barcelona, Spain). Animals were kept 10 per cage, under controlled environmental conditions (12 hr light [8 am]/12 hr dark [8 pm]cycle; room temperature 22±1° C.). Food and tap water were allowed ad libitum. Animals were habituated to the animal facilities at least for a week prior to experiments. The experiments were all carried out during daylight hours.
(§4) Animals were fasted overnight before administration of compounds. […] After administration the animals were given atipamezole (1 mg/kg) to reverse the sedative and analgesic effects induced by the anaesthesia.
(§5) Fifteen minutes before sacrifice, animals were anesthetized with pentobarbital 60 mg/kg administrated intra-peritoneally. The brain (without cerebellum) and a fragment of liver were collected into plastic vials containing membrane buffer (3 mM MgCl2, 1 mM EDTA, 50 mM Tris HCl, pH 7.4). Glass beads (2.5 mm BioSpec Products, Bartlesville, Okla., USA) were added to the vials containing the brain and liver tissues. Tissues were stored at −20° C. until analysis.
(§6) Anandamide [ethanolamine-1-^3H-] was obtained from American Radiochemicals—with a specific activity of 60 Ci/mmol. All other reagents were obtained from Sigma-Aldrich. Optiphase Supermix was obtained from Perkin Elmer.
(§7) Brain and liver tissues were thawed and homogenized in 10 volumes of membrane buffer (3 mM MgCl2, 1 mM EDTA, 50 mM Tris HCl, pH 7.4) with homogenizer Precellys 24 Dual Tissue Homogenizer (Bertin Technologies) for 2 cycles of 5 sec (5000 rpm).
(§8) Total protein in the tissue homogenates was determined with the BioRad Protein Assay (BioRad) using a standard curve of BSA ([…]). Tissue homogenates were diluted to appropriate concentration for enzymatic determination in assay buffer (1 mM EDTA, 10 mM Tris HCl, pH 7.6).
(§9) Reaction mix (total volume 200 μL) contained 2 μM AEA (2 μM AEA+5 nM ^3H-AEA), 0.1% fatty acid free BSA, 15 μg (brain) or 5 μg (liver) protein, in assay buffer (1 mM EDTA, 10 mM Tris pH 7.6).
(§10) The test compound was used at a level of 1 mg/kg protein. After 15 minutes pre-incubation at 37° C. of the protein sample, reaction was started by the addition of the substrate solution (cold AEA+radiolabelled AEA+BSA). Reaction was carried out for 12 minutes for brain and liver tissues. Reaction was terminated by addition of 400 μL chloroform:methanol (1:1, v/v) solution. Reaction samples were vortex twice, left on ice for 5 minutes and then centrifuged in the microfuge for 7 minutes, 7000 rpm. 200 μL of the obtained supernatants were added to […] Optiphase Supermix scintillation cocktail previously distributed in 24-well plates.
(§11) Counts per minute (cpm) were determined in a Microbeta TriLux scintillation counter. In each assay blank samples (without protein) were prepared.

FAAH [2] = molecular target: T1, FAAH; assay: In vitro/ex vivo FAAH activity determination in liver after intra-tracheal instillation; parameters: Liver and brain fragments were removed and processed for enzymatic activity determination; from tissue; host or cells: mouse liver fragment homogenate; species or system male NMRI mice; settings: remaining enzymatic activity vs controls, 1 mg/kg intra-tracheal instillation, sacrificed after 8 h
Protocol: as §1, §2, §3, §4, §5, §6, §7, §8, §9, §10, §11

CYPs = CYPs metabolic stability assay in HLM (human liver microsomes); assay type: in vitro ADME; settings: HLM 1 mg/ml protein, compound 5 μM, 60 min, 37° C.; for Control (% remain): absence of NADPH; for CYP+ (% remain): with NADPH 1 mM
Protocol: Stability of the test compounds was performed in HLM (human liver microsomes) in the presence and in the absence of NADPH.
The stability was measured using the incubation mixture (100 μl total volume) contained 1 mg/ml total protein, MgCl2 5 mM and 50 mM K-phosphate buffer. Samples were incubated in the presence and in the absence of NADPH 1 mM. Reactions were pre-incubated 5 min and the reaction initiated with the compound under test (at a concentration of 5 μM). Samples were incubated for 60 min in a shaking water bath at 37° C. The reaction was stopped by adding 100 μl of acetonitrile. Samples were then centrifuged, filtered and supematant injected in HLPC-MSD. Test compounds were dissolved in DMSO and the final concentration of DMSO in the reaction was below 0.5% (v/v). At T0 acetonitrile was added before adding the compound. All experiments were performed with samples in duplicate.

[3] = Solubility assay in purified water; assay type: physicochemical; settings: pH 5.7, thermodynamic from solid; purified water pH=5.6-5.8, stirring 2 h, room temperature, HPLC
Protocol: A saturated solution was prepared by adding the test compound in excess to 1 mL of purified water (pH=5.6-5.8) followed by stirring of the mixture for 2 h at room temperature. Thereupon, the un-dissolved material was removed by filtration and the amount of test compound in the filtrate was quantified by HPLC using a calibration curve.

| FAAH Activity - Brain itc (% C) (FAAH [1]) | FAAH Activity - Liver itc (% C) (FAAH [2]) | Control (% remain) (CYPs) | CYP+ (% remain) (CYPs) | solubility at 2 h [3] | FAAH Activity - Brain itc (% C) (FAAH [1]; methanesulfonate, 1 mg/kg) | FAAH Activity - Liver itc (% C) (FAAH [2]; methanesulfonate, 1 mg/kg) | Control (% remain) (CYPs; methanesulfonate) | CYP+ (% remain) (CYPs; methanesulfonate) | Compound |
| --- | --- | --- | --- | --- | --- | --- | --- | --- | --- |
| 91.9 % C | 4.2 % C | 103.4 % remain | 21.4 % remain | 14.1 mg/mL | – | – | – | – | COc1cccc(CN2CCC(N(C)C(=O)n3cnc(-c4cccc(NC(N)=O)c4)c3)CC2)c1.Cl [Example 17, N-(1-(3-methoxybenzyl)piperidin-4-yl)-N-methyl-4-(3-ureidophenyl)-1 H-imidazole-1-carboxamide hydrochloride] |
| 96.0 % C | 5.3 % C | 103.5 % remain | 17.5 % remain | 7.7 mg/mL | – | – | – | – | COc1cccc(CN2CCC(N(C)C(=O)n3cnc(-c4cccc(NS(N)(=O)=O)c4)c3)CC2)c1 [Example 3, N-(1-(3-methoxybenzyl)piperidin-4-yl)-N-methyl-4-(3-(sulfamoylamino)phenyl)-1H-imidazole-1-carboxamide hydrochloride] |
| 82.1 % C | 11.5 % C | – | – | > 16 mg/mL | – | – | – | – | COc1cccc(CN2CCC(N(C)C(=O)n3cnc(-c4cccc(NS(N)(=O)=O)c4)c3)CC2)c1.CS(=O)(=O)O [Example 23, N-(1-(3-methoxybenzyl)piperidin-4-yl)-N-methyl-4-(3-(sulfamoylamino)phenyl)-1H-imidazole-1-carboxamide methanesulfonate] |
| 78.7 % C | 3.3 % C | 105.4 % remain | 9.1 % remain | > 14.7 mg/mL | – | – | – | – | COc1ccccc1N1CCC(N(C)C(=O)n2cnc(-c3cccc(C(N)=O)c3)c2)CC1 [Example 34, 4-(3-carbamoylphenyl)-N-(1-(2-methoxyphenyl)piperidin-4-yl)-N-methyl-1 H-imidazole-1-carboxamide hydrochloride] |
| 92.4 % C | 8.2 % C | – | – | 4.3 mg/mL | – | – | – | – | CN(C(=O)n1cnc(-c2cccc(NC(N)=O)c2)c1)C1CCN(Cc2ccccc2)CC1.O=C(O)/C=C\C(=O)O [Example 21, N-(1-benzylpiperidin-4-yl)-N-methyl-4-(3-ureidophenyl)-1H-imidazole-1-carboxamide maleate] |
| 102 % C | 3.4 % C | 112.2 % remain | 70.4 % remain | > 14.9 mg/mL | – | – | – | – | COc1ccc(CN2CCC(N(C)C(=O)n3cnc(-c4cccc(C(N)=O)c4)c3)CC2)cc1 [Example 33, 4-(3-carbamoylphenyl)-N-(1-(4-methoxybenzyl)piperidin-4-yl)-N-methyl-1H-imidazole-1-carboxamide hydrochloride] |
| 113.4 % C | 3.2 % C | 100.0 % remain | 5.8 % remain | – | – | – | – | – | COc1cc(CN2CCC(N(C)C(=O)n3cnc(-c4cccc(OS(N)(=O)=O)c4)c3)CC2)ccc1F [Example 10, 3-(1-((1-(4-fluoro-3-methoxybenzyl)piperidin-4-yl)(methyl)carbamoyl)-1H-imidazol-4-yl)phenyl sulfamate hydrochloride] |
| 91.0 % C | 3.4 % C | 84.8 % remain | 66.0 % remain | – | – | – | – | – | CN(C(=O)n1cnc(-c2ccc(OS(N)(=O)=O)cc2)c1)C1CCN(c2ccc(O)cc2)CC1 [Example 28, 4-(1-((1-(4-hydroxyphenyl)piperidin-4-yl)(methyl)carbamoyl)-1H-imidazol-4-yl)phenyl sulfamate hydrochloride] |
| – | – | – | – | – | 84.3 % C | 13.9 % C | 96.9 % remain | 26.7 % remain | COc1cc(CN2CCC(N(C)C(=O)n3cnc(-c4ccc(OS(N)(=O)=O)cc4)c3)CC2)cc(OC)c1 [Example 27, 4-(1-((1-(3,5-dimethoxybenzyl)piperidin-4-yl)(methyl)carbamoyl)-1H-imidazol-4-yl)phenyl sulfamate methanesulfonate] |
| 108.7 % C | 3.8 % C | 106.2 % remain | 7.9 % remain | – | – | – | – | – | COc1cc(CN2CCC(N(C)C(=O)n3cnc(-c4ccc(OS(N)(=O)=O)cc4)c3)CC2)ccc1F [Example 12, 4-(1-((1-(4-fluoro-3-methoxybenzyl)piperidin-4-yl)(methyl)carbamoyl)-1 H-imidazol-4-yl)phenyl sulfamate oxalate] |
| 100.7 % C | 9.0 % C | 61.5 % remain | 49.1 % remain | – | – | – | – | – | CN(C(=O)n1cnc(-c2cccc(NC(N)=O)c2)c1)C1CCN(c2ccc(O)cc2)CC1 [Example 25, N-(1-(4-hydroxyphenyl)piperidin-4-yl)-N-methyl-4-(3-ureidophenyl)-1 H-imidazole-1-carboxamide hydrochloride] |
| 96.6 % C | 4.3 % C | 73.8 % remain | 81.0 % remain | 10.2 mg/mL | – | – | – | – | CN(C(=O)n1cnc(-c2cccc(C(N)=O)c2)c1)C1CCN(c2ccc(O)cc2)CC1 [Example 35, 4-(3-carbamoylphenyl)-N-(1-(4-hydroxyphenyl)piperidin-4-yl)-N-methyl-1H-imidazole-1-carboxamide hydrochloride] |
